From ChEMBL document CHEMBL1155949, “Blockade of glucocorticoid excess at the tissue level: inhibitors of 11beta-hydroxysteroid dehydrogenase type 1 as a therapy for type 2 diabetes” (J Med Chem, 2008)

Tests used:
[1] = test system: Corticosteroid 11-beta-dehydrogenase isozyme 2 (Homo sapiens); experiment: Inhibition of 11beta-HSD2 in human SW620 cells at 10 uM; conditions: SW-620
[2] = Inhibition of cynomolgus monkey 11beta-HSD1 mediated conversion of prednisone to prednisolone; design: species or system Macaca fascicularis

inhibition [1] [%] | Ki [2] [nM] | SMILES
12 |  | O=C(Nc1cccc(C(=O)N2CCC[C@H]3CCCC[C@@H]32)c1)c1ccccc1
 | 2.3 | N#Cc1ccc(-c2ccc(S(=O)(=O)Nc3cccc(N)n3)cc2)cc1
